In patent US5466671A, “Apidaecin-type peptide antibiotics with improved activities and/or different antibacterial spectrum” (priority 1994, dated 1995):
Residues, ends and D or L forms follow the SMILES beside them.

What was measured:
E. coli 11775 = assay: Minimal inhibitory concentration (liquid culture); conditions: a-b = highest concentration with growth - lowest without growth
M. morganii = assay: Minimal inhibitory concentration (liquid culture); conditions: inoculum 400 CFU/ml; a-b = highest concentration with growth - lowest without growth
Shigella dysenteriae = format: cell-based; conditions: for Inhibition zones: in mm diameter: 50 nanomoles per well (3 mm diameter)
E. coli Apid^R = assay: Minimal inhibitory concentration (liquid culture); format: cell-based; conditions: a-b = highest concentration with growth - lowest without growth
From the text: For details see `Experimental Procedures`.

Klebsiella pneumoniae = assay: Inhibition zone assay (agar plate); format: cell-based; conditions: for Inhibition zones: in mm diameter: 50 nanomoles per well (3 mm diameter)
Rhizobium meliloti = assay: Inhibition zone assay (agar plate); format: cell-based; conditions: 50 nanomoles/well, 3 mm wells
E. coli 23802 = assay: Minimal inhibitory concentration (liquid culture); conditions: inoculum 5000 CFU/ml; a-b = highest concentration with growth - lowest without growth
E. coli 25922 = assay: Minimal inhibitory concentration (liquid culture); conditions: inoculum 1100 CFU/ml; a-b = highest concentration with growth - lowest without growth
Salmonella typhimurium = assay: Inhibition zone assay (agar plate); format: cell-based; conditions: for Inhibition zones: in mm diameter: 50 nanomoles per well (3 mm diameter)
Morganella morganii = assay: Inhibition zone assay (agar plate); format: cell-based; conditions: 50 nanomoles/well, 3 mm wells
Enterobacter cloacae = assay: Inhibition zone assay (agar plate); format: cell-based; conditions: for Inhibition zones: in mm diameter: 50 nanomoles per well (3 mm diameter)
Yersinia enterocolitica = assay: Inhibition zone assay (agar plate); format: cell-based; conditions: 50 nanomoles/well, 3 mm wells
Erwinia amylovora = assay: Inhibition zone assay (agar plate); format: cell-based; conditions: for Inhibition zones: in mm diameter: 50 nanomoles per well (3 mm diameter)
S. typhimurium = assay: Minimal inhibitory concentration (liquid culture); conditions: inoculum 8 × 10^6 CFU/ml; a-b = highest concentration with growth - lowest without growth
[1] = test system: Escherichia coli (ATCC11775); assay: Inhibition zone assay (agar plate); format: cell-based; conditions: for Inhibition zones: in mm diameter: 50 nanomoles per well (3 mm diameter)
Y. enterocolitica = assay: Minimal inhibitory concentration (liquid culture); conditions: inoculum 5000 CFU/ml; a-b = highest concentration with growth - lowest without growth
A. calcoaceticus = assay: Minimal inhibitory concentration (liquid culture); conditions: inoculum 16 × 10^6 CFU/ml; a-b = highest concentration with growth - lowest without growth
Pseudomonas syringae = assay: Inhibition zone assay (agar plate); format: cell-based; conditions: for Inhibition zones: in mm diameter: 50 nanomoles per well (3 mm diameter)
Salmonella typhi = format: cell-based; conditions: for Inhibition zones: in mm diameter: 50 nanomoles per well (3 mm diameter)
[2] = test system: Acinetobacter calcoaceticus; assay: Inhibition zone assay (agar plate); format: cell-based; conditions: 50 nanomoles per well (3 mm diameter)
E. coli D22 = format: cell-based; conditions: 50 nanomoles per well (3 mm diameter)
[3] = test system: Agrobacterium tumefaciens; assay: Inhibition zone assay (agar plate); format: cell-based; conditions: 50 nanomoles per well (3 mm diameter)
[4] = agar plate, 50 nanomoles/well, 3 mm wells

For `CC(C)C[C@H](NC(=O)[C@H](CCCNC(=N)N)NC(=O)[C@@H]1CCCN1C(=O)[C@H](Cc1c[nH]cn1)NC(=O)[C@@H]1CCCN1C(=O)[C@@H]1CCCN1C(=O)[C@H](CCCNC(=N)N)NC(=O)[C@@H]1CCCN1C(=O)[C@@H]1CCCN1C(=O)[C@@H](NC(=O)[C@H](CCC(N)=O)NC(=O)[C@H](CCC(N)=O)NC(=O)[C@@H]1CCCN1C(=O)[C@@H](N)CCCNC(=N)N)C(C)C)C(=O)O` [Ho -, Arg--Pro--Gln--Gln--Val--Pro--Pro--Arg--Pro--Pro--His--Pro--Arg--Leu] (H-RPQQVPPRPPHPRL-OH), the “minimal inhibitory concentration (MIC)” value (E. coli 11775; inoculum 16 × 10^6 CFU/ml) was 10 to 20 µg/mL, the “minimal inhibitory concentration (MIC)” value (E. coli 11775; inoculum 1200 CFU/ml) was 0.5 to 1 µg/mL and the “minimal inhibitory concentration (MIC)” value (M. morganii) was 10 to 20 µg/mL. For the same compound, the “inhibition zone diameter (number of plus signs)” value (“inhibition zone diameter” below) (Shigella dysenteriae; [4]) was “+ ((+) 5-6 mm)”, the “minimal inhibitory concentration (MIC)” value (E. coli Apid^R; inoculum 12 × 10^6 CFU/ml) was > 40 µg/mL and the “minimal inhibitory concentration (MIC)” value (E. coli Apid^R; inoculum 1000 CFU/ml) was > 40 µg/mL. For the same compound, the “inhibition zone diameter” value (Klebsiella pneumoniae; [4]) was “+ ((+) 5-6 mm)”, the “inhibition zone diameter” value (Rhizobium meliloti) was “++++ ((++++) 15-19 mm)” and the “minimal inhibitory concentration (MIC)” value (E. coli 23802) was > 40 µg/mL. The “minimal inhibitory concentration (MIC)” value (E. coli 25922) was 10 to 20 µg/mL, the “inhibition zone diameter” value (Salmonella typhimurium; [4]) was “+ ((+) 5-6 mm)” and the “inhibition zone diameter” value (Morganella morganii) was “++ ((++) 7-9 mm)”. For the same compound, the “inhibition zone diameter” value (Enterobacter cloacae; [4]) was “+ ((+) 5-6 mm)”, the “inhibition zone diameter” value (Yersinia enterocolitica) was “++ ((++) 7-9 mm)” and the “inhibition zone diameter” value (Erwinia amylovora; [4]) was “++ ((++) 7-9 mm)”. For the same compound, the “minimal inhibitory concentration (MIC)” value (S. typhimurium) was 5 to 10 µg/mL, the “inhibition zone diameter” value [1, 4] was “+++ ((+++) 10-14 mm)” and the “minimal inhibitory concentration (MIC)” value (Y. enterocolitica) was 10 to 20 µg/mL. The “minimal inhibitory concentration (MIC)” value (A. calcoaceticus) was > 20 µg/mL, the “inhibition zone diameter” value (Pseudomonas syringae; [4]) was “+++ ((+++) 10-14 mm)” and the “inhibition zone diameter” value (Salmonella typhi; [4]) was “+ ((+) 5-6 mm)”.

For `CC[C@H](C)[C@H](NC(=O)[C@@H]1CCCN1C(=O)[C@@H](NC(=O)[C@H](CCC(N)=O)NC(=O)[C@@H]1CCCN1C(=O)[C@H](CO)NC(=O)[C@@H]1CCCN1C(=O)[C@H](CCCNC(=N)N)NC(=O)[C@@H](N)CO)C(C)C)C(=O)N[C@@H](CCCNC(=N)N)C(=O)N1CCC[C@H]1C(=O)N[C@@H](CO)C(=O)N[C@@H](CCC(N)=O)C(=O)N1CCC[C@H]1C(=O)N[C@@H](CCCNC(=N)N)C(=O)N1CCC[C@H]1C(=O)N[C@@H](CCC(N)=O)C(=O)N1CCC[C@H]1C(=O)NCC(=O)N[C@@H](CCCCN)C(=O)N1CCC[C@H]1C(=O)N[C@@H](CCCNC(=N)N)C(=O)N1CCC[C@H]1C(=O)N[C@@H](CCC(N)=O)C(=O)N[C@@H](CCC(N)=O)C(=O)N[C@H](C(=O)N1CCC[C@H]1C(=O)N1CCC[C@H]1C(=O)N[C@@H](CCCNC(=N)N)C(=O)N[C@H](C(=O)N1CCC[C@H]1C(=O)N[C@@H](Cc1c[nH]cn1)C(=O)N1CCC[C@H]1C(=O)N[C@@H](CCCNC(=N)N)C(=O)N[C@@H](CC(C)C)C(=O)O)[C@@H](C)O)C(C)C` [PAB-GT, SRPSPQVPIRPSQPRPQPGKPRPQQVPPRTPHPRL] (H-SRPSPQVPIRPSQPRPQPGKPRPQQVPPRTPHPRL-OH), the “Inhibition zones: in mm diameter” value (Shigella dysenteriae) was 10 mm, the “Inhibition zones: in mm diameter” value [2] was 8 mm and the “Inhibition zones: in mm diameter” value (Klebsiella pneumoniae) was 8 mm. The “Inhibition zones: in mm diameter” value (E. coli D22) was 13 mm, the “Inhibition zones: in mm diameter” value [3] was 5 mm and the “Inhibition zones: in mm diameter” value (Salmonella typhimurium) was 6 mm. The “Inhibition zones: in mm diameter” value (Enterobacter cloacae) was 9 mm, the “Inhibition zones: in mm diameter” value (Erwinia amylovora) was 6 mm and the “Inhibition zones: in mm diameter” value [1] was 8 mm. The “Inhibition zones: in mm diameter” value (Pseudomonas syringae) was 5 mm and the “Inhibition zones: in mm diameter” value (Salmonella typhi) was 12 mm.

With `CC[C@H](C)[C@H](NC(=O)[C@@H]1CCCN1C(=O)[C@@H](NC(=O)[C@H](CCC(N)=O)NC(=O)[C@@H]1CCCN1C(=O)[C@H](CO)NC(=O)[C@@H]1CCCN1C(=O)[C@H](CCCNC(=N)N)NC(=O)[C@@H](N)CO)C(C)C)C(=O)N[C@@H](CCCNC(=N)N)C(=O)N1CCC[C@H]1C(=O)N[C@@H](CO)C(=O)N[C@@H](CCC(N)=O)C(=O)N1CCC[C@H]1C(=O)N[C@@H](CCCNC(=N)N)C(=O)N1CCC[C@H]1C(=O)N[C@@H](CCC(N)=O)C(=O)N1CCC[C@H]1C(=O)N[C@@H](Cc1ccccc1)C(=O)N[C@@H](CCCCN)C(=O)N1CCC[C@H]1C(=O)N[C@@H](CCCNC(=N)N)C(=O)N1CCC[C@H]1C(=O)N[C@@H](CCC(N)=O)C(=O)N[C@@H](CCC(N)=O)C(=O)N[C@H](C(=O)N1CCC[C@H]1C(=O)N1CCC[C@H]1C(=O)N[C@@H](CCCNC(=N)N)C(=O)N1CCC[C@H]1C(=O)N1CCC[C@H]1C(=O)N[C@@H](Cc1c[nH]cn1)C(=O)N1CCC[C@H]1C(=O)N[C@@H](CCCNC(=N)N)C(=O)N[C@@H](CC(C)C)C(=O)O)C(C)C` [PAB-FP, SRPSPQVPIRPSQPRPQPFKPRPQQVPPRPPHPRL] (H-SRPSPQVPIRPSQPRPQPFKPRPQQVPPRPPHPRL-OH) the “Inhibition zones: in mm diameter” value (Shigella dysenteriae) was 12 mm, the “Inhibition zones: in mm diameter” value [2] was 8 mm and the “Inhibition zones: in mm diameter” value (Klebsiella pneumoniae) was 8 mm. For the same compound, the “Inhibition zones: in mm diameter” value (E. coli D22) was 14 mm, the “Inhibition zones: in mm diameter” value [3] was 7 mm and the “Inhibition zones: in mm diameter” value (Salmonella typhimurium) was 7 mm. The “Inhibition zones: in mm diameter” value (Enterobacter cloacae) was 11 mm, the “Inhibition zones: in mm diameter” value (Erwinia amylovora) was 5 mm and the “Inhibition zones: in mm diameter” value [1] was 10 mm. The “Inhibition zones: in mm diameter” value (Salmonella typhi) was 13 mm.

“SQPRPQPFKPRPQQVPPRTPHPR (SQPRPQPFKPRPQQVPPRTPHPR) [PAB-FT 12-35]” was tested, and the “Inhibition zones: in mm diameter” value (Shigella dysenteriae) was 11 mm, the “Inhibition zones: in mm diameter” value (Klebsiella pneumoniae) was 6 mm and the “Inhibition zones: in mm diameter” value (E. coli D22) was 10 mm. For the same compound, the “Inhibition zones: in mm diameter” value (Enterobacter cloacae) was 11 mm, the “Inhibition zones: in mm diameter” value [1] was 10 mm and the “Inhibition zones: in mm diameter” value (Salmonella typhi) was 5 mm.

For `CC(C)C[C@H](NC(=O)[C@H](CCCNC(=N)N)NC(=O)[C@@H]1CCCN1C(=O)[C@H](Cc1c[nH]cn1)NC(=O)[C@@H]1CCCN1C(=O)[C@@H]1CCCN1C(=O)[C@H](CCCNC(=N)N)NC(=O)[C@@H]1CCCN1C(=O)[C@@H]1CCCN1C(=O)[C@@H](NC(=O)[C@H](CCC(N)=O)NC(=O)[C@H](CCC(N)=O)NC(=O)[C@@H]1CCCN1C(=O)[C@H](CCCNC(=N)N)NC(=O)[C@@H]1CCCN1C(=O)[C@H](CCCCN)NC(=O)[C@@H](N)Cc1ccccc1)C(C)C)C(=O)O` [HoFP, F K P R P Q Q V P P R P P H P R L] (H-FKPRPQQVPPRPPHPRL-OH), the “Inhibition zones: in mm diameter” value (Shigella dysenteriae) was 18 mm, the “Inhibition zones: in mm diameter” value (Klebsiella pneumoniae) was 14 mm and the “Inhibition zones: in mm diameter” value (E. coli D22) was 16 mm. For the same compound, the “Inhibition zones: in mm diameter” value [3] was 11 mm, the “Inhibition zones: in mm diameter” value (Salmonella typhimurium) was 12 mm and the “Inhibition zones: in mm diameter” value (Enterobacter cloacae) was 14 mm. The “Inhibition zones: in mm diameter” value (Erwinia amylovora) was 11 mm, the “Inhibition zones: in mm diameter” value [1] was 13 mm and the “Inhibition zones: in mm diameter” value (Pseudomonas syringae) was 12 mm. The “Inhibition zones: in mm diameter” value (Salmonella typhi) was 13 mm.

With “QVPIRPSQPRPQPFKPRPQQVPPRTPHPR (QVPIRPSQPRPQPFKPRPQQVPPRTPHPR) [PAB-FT 6-35]” the “Inhibition zones: in mm diameter” value (Shigella dysenteriae) was 12 mm, the “Inhibition zones: in mm diameter” value [2] was 10 mm and the “Inhibition zones: in mm diameter” value (Klebsiella pneumoniae) was 11 mm. For the same compound, the “Inhibition zones: in mm diameter” value (E. coli D22) was 14 mm, the “Inhibition zones: in mm diameter” value (Salmonella typhimurium) was 8 mm and the “Inhibition zones: in mm diameter” value (Enterobacter cloacae) was 12 mm. The “Inhibition zones: in mm diameter” value [1] was 13 mm and the “Inhibition zones: in mm diameter” value (Salmonella typhi) was 14 mm.
